Entries after “also recorded” stand apart in the source; their conditions may differ.
How the values were obtained:
Assay type in all cases: cell-based, human
LNCaP cells = assay: Flow cytometry of propidium iodide stained cells, sub-G0 peak (cell death); conditions: for dead cells (sub-G0 peak): LNCaP in androgen-free medium 5 days, then siRNA transfection a further 48 hrs
Method: FIG. 18. Selective killing of LNCaP cells grown in androgen-free medium by PCDH-PC siRNA. LNCaP cells grown in normal medium or in androgen-free medium (phenol red-free RPMI supplemented with CS-FBS) for 5 days were transfected with PCDH-PC siRNA (#181) or with lamin siRNA, as indicated for a further 48 hrs. Cells were collected, fixed and stained with propidium iodide and were analyzed by flow cytometry. Bars represent the % population of cells in the sub-G0 peak considered to be apoptotic. The bars are averages based on two measurements under each condition. No siRNAs were untransfected cells.
siRNAs and Transfection of Cultured Human Prostate Cancer Cells. Commercial siRNAs targeting human β-catenin and lamin A were purchased from Dharmacon, Inc. (Chicago, Ill.). Three different siRNAs targeting PCDH-PC were designed using the siRNA Target Finder software program available through Ambion, Inc. (Austin, Tex.). The anti-PCDH-PC siRNAs targeted sequences at position 3043-3062 (#181; SEQ ID NO:4; FIG. 29), 3098-3117 (#190; SEQ ID NO:6; FIG. 31) or 3345-3364 (#208; SEQ ID NO:7; FIG. 32) on the PCDH-PC mRNA. The 21 bp siRNAs were constructed using the 19 bp core sequences described above with 2 nucleotide UU overhangs and these siRNAs were produced and provided by Ambion, Inc. siRNAs were transfected or co-transfected (with other expression vectors as described) into LNCaP cells at 100 nM final concentrations using Lipofectamine 2000 transfection reagent (Invitrogen Life Technologies, Inc.) in serum-free medium as instructed by the manufacturer. 48 hrs after transfection, cells were harvested and extracted for protein or RNA as described below.

PCDH-PC = assay: Western blot of myc-tagged PCDH-PC in LNCaP cells co-transfected with pPCDH-PC-myc and siRNA; conditions: siRNA 100 nM co-transfected with pPCDH-PC-myc, 48 hrs; listed as #181
Source text: FIGS. 4A-4B. siRNAs against PCDH-PC suppress PCDH-PC expression and NE transdifferentiation of LNCaP cells. FIG. 4A. LNCaP cells were transfected with the pPCDH-PC-myc expression vector and were co-transfected with siRNA against human lamin or siRNAs 181, 190 or 208 designed to suppress PCDH-PC expression. A Western blot made against protein extracts from these cells were probed with anti-myc (Top Panel) to identify expression of the 110 kd PCDH myc-tagged protein, anti-β-actin (Middle Panel) or anti-human E-cadherin (Bottom Panel). FIG. 4B. A repeated experiment that includes control LNCaP cells (no transfection) or pCMV-PCDH-myc transfected LNCaP cells co-transfected with siRNAs against lamin or against PCDH-PC (181, 190 or 208). The Western blot was probed for NSE expression (Top Panel) or for β-actin expression (Bottom Panel).
Expression Vectors, Transfection Protocols and Luciferase/β-Glactosidase Assays. PCDH-PC cDNA was inserted into the mammalian expression vectors pcDNA3 (Invitrogen Life Technologies, Inc., Carlsbad, Calif.) or into pCMV-myc (BD Biosciences, Clontech, Inc., Palo Alto, Calif.) so that the PCDH-PC product generated from this vector (pPCDH-PC-myc) has a C-terminal myc tag. An expression vector containing cDNA encoding a mutated (stabilized) form of human β-catenin (Tetsu and McCormick, 1999) was used. A dominant-negative Tcf expression vector used was previously described (Chen et al., 2001). The Tcf-sensitive reporter vector, pTOP and a CMV-promoted β-galactosidase expression vector were obtained from Upstate Biotechnology, Inc. Transfections used for protein or RNA extractions were done in 35 cm^2 dishes with cells plated at 50% density 12-16 hrs prior. […] Luciferase activity in cell extracts was measured using the Luciferase Assay System of Promega, Inc. (Madison, Wis.). β-galactosidase activity was also measured in the same cell extracts using the β-galactosidase Enzyme Assay System of Promega, Inc. All experiments involving luciferase reporter vectors were done in triplicate for each point. […]

[1] = tested on: Tcf-sensitive reporter pTOP (wnt signaling); assay: Tcf-sensitive pTOP luciferase reporter assay (wnt signaling) in LNCaP cells; conditions: 7 days in androgen-free medium
Source text: FIGS. 5A-5C. siRNAs against PCDH-PC suppress PCDH-PC expression, TCF-mediated transcription and NE transdifferentiation in LNCaP cells grown in androgen-free medium. FIG. 5A. RNAs extracted from LNCaP cells grown in normal medium (Control) or in androgen-free medium (CS-FBS, None) were compared toRNAs from LNCaP cells grown in androgen-free medium transfected with siRNAs against PCDH-PC (181, 190 and 208) or siRNA against lamin by RT-PCR using primers specific for PCDH-PC (Top Panel) or β-actin (Bottom Panel). PCR reaction products were electrophoresed on agarose gels and were visualized after ethidium bromide staining under UV light. FIG. 5B. LNCaP cells cultured in normal medium (Control) were compared to LNCaP cells grown in androgen-free medium for 7 days without or with transfection with siRNA 181 against PCDH-PC or siRNA against lamin for expression of luciferase from the TCF-sensitive reporter pTOP for normalized luciferase activity. FIG. 5C. […]
Expression Vectors, Transfection Protocols and Luciferase/β-Glactosidase Assays. […] Luciferase activity in cell extracts was measured using the Luciferase Assay System of Promega, Inc. (Madison, Wis.). β-galactosidase activity was also measured in the same cell extracts using the β-galactosidase Enzyme Assay System of Promega, Inc. All experiments involving luciferase reporter vectors were done in triplicate for each point.

Akt = assay: Western blot of phosphorylated Akt / MDM2 in LNCaP cells in androgen-free medium; conditions: androgen-free medium 5 days then transfected 2 days
Source text: FIG. 15. Proteins were extracted from untransfected LNCaP cells maintained in androgen free medium for 7 days (CS-FBS Control) or from 7-day androgen-free LNCaP cells that were transfected for 48 hrs with β-catenin siRNA (CS-FBS+beta-Cat siRNA) or dominant negative Tcf (CS-FBS+DN-Tcf) or PCDH-PC siRNA 181 (CS-FBS+PCDH-PC siRNA) or lamin siRNA (CS-FBS+lamin siRNA). Equal aliquots of protein were electrophoresed on a polyacrylamide gel and then blotted onto a PVDF filter to produce a Western blot. The same blot was probed with an antibody against Akt protein (top panel) or against phosphorylated Akt (ser 473) (second panel) or with an antibody against MDM2 protein (third panel) or phosphorylated MDM2 protein (bottom panel). […] The blockade of Akt phosphorylation by PCDH-PC siRNA could be involved in the process through which this molecule induces the death of prostate cancer cells under androgen-free conditions. […]
Preparation of cell extracts and western blots. Cells were harvested and protein extracts prepared, quantified and used to prepare Western blots as previously described (Example 1; Yang et al., 2005). […] Recombinant Wnt-1 protein (HA-tagged) was detected with anti-HA antibody (Clontech Inc., Mountain View, Calif.). Antibody binding to the Western blot was detected as previously described (Yang et al., 2005). […]

siRNA #181: 21 bp siRNA targeting PCDH-PC mRNA position 3043-3062, 19 bp core with UU overhangs (SEQ ID NO:4) (AAGCATTGAAGCACCAGTGAC; listed as DNA, further chemistry not given here)
selectivity of cell death induction, androgen-free versus normal medium (LNCaP cells; LNCaP): specific to cells grown in androgen free medium, not in normal medium
dead cells (sub-G0 peak) (LNCaP cells; listed as #181): approximately 58%
dead cells (sub-G0 peak) (LNCaP cells; listed as PCDH-PC siRNA): 58%
dead cells (sub-G0 peak) (LNCaP cells; listed as siRNA against PCDH-PC): 58%
cell death relative to untransfected cells or cells transfected with lamin siRNA (LNCaP cells; LNCaP, androgen-free medium 7 days): greater than 4 ×
expression of myc-tagged PCDH-PC polypeptide (PCDH-PC): suppressive effects; also recorded: most effective
induced luciferase expression from pTOP reporter (wnt signaling) [1]: completely suppressed
Akt phosphorylation (pAkt; and MDM2 phosphorylation) (Akt): reduced

From US20090311716A1, “METHODS TO TREAT OR PREVENT HORMONE-RESISTANT PROSTATE CANCER USING siRNA [sequence] FOR PROTOCADHERIN-PC, OR OTHER INHIBITORS OF PROTOCADHERIN-PC EXPRESSION OR ACTIVITY” (THE TRUSTEES OF COLUMBIA UNIVERSITY IN THE CITY OF NEW YORK, priority 2005, published 2009)
